Where “and” joins values, the source holds several entries; their conditions need not be identical. Equal values may be shown once.

In data set [1] the target is T1, TLR7 (Homo sapiens, UniProt Q9NYK1).
T1 construct: expressed in transfected cells; host or cells: HEK293
T1 sequence (Q9NYK1 27-1049): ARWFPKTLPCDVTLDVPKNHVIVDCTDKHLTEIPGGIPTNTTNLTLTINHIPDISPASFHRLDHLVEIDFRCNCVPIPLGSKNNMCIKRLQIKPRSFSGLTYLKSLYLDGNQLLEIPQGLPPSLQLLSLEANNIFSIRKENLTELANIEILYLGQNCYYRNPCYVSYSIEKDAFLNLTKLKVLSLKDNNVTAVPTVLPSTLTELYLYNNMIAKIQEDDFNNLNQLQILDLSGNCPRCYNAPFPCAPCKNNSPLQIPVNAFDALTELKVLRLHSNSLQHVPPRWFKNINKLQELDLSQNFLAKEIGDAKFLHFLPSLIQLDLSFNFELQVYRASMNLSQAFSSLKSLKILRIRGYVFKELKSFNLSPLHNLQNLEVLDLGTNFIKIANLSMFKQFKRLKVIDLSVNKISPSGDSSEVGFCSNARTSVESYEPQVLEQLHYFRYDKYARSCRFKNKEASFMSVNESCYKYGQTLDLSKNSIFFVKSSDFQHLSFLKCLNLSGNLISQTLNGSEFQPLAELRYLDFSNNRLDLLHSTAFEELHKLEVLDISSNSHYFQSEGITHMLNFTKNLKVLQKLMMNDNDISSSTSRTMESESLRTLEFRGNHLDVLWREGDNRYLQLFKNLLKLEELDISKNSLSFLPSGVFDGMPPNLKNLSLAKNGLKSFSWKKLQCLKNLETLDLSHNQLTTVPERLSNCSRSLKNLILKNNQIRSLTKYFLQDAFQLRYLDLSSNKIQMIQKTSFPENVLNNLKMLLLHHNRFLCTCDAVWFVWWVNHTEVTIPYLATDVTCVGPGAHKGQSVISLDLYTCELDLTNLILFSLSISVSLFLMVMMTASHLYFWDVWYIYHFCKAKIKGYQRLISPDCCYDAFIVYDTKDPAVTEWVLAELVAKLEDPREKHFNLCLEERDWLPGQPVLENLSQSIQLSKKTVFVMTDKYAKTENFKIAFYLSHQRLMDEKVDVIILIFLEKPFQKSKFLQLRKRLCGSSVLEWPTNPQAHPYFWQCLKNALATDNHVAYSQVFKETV
The settings on record: TLR7-transfected HEK293 cells; cited from earlier work.

A further data set deals with T2, TLR8 (Homo sapiens, UniProt Q9NR97).
T2 construct: expressed in transfected cells; host or cells: HEK293
T2 sequence (Q9NR97 27-1041): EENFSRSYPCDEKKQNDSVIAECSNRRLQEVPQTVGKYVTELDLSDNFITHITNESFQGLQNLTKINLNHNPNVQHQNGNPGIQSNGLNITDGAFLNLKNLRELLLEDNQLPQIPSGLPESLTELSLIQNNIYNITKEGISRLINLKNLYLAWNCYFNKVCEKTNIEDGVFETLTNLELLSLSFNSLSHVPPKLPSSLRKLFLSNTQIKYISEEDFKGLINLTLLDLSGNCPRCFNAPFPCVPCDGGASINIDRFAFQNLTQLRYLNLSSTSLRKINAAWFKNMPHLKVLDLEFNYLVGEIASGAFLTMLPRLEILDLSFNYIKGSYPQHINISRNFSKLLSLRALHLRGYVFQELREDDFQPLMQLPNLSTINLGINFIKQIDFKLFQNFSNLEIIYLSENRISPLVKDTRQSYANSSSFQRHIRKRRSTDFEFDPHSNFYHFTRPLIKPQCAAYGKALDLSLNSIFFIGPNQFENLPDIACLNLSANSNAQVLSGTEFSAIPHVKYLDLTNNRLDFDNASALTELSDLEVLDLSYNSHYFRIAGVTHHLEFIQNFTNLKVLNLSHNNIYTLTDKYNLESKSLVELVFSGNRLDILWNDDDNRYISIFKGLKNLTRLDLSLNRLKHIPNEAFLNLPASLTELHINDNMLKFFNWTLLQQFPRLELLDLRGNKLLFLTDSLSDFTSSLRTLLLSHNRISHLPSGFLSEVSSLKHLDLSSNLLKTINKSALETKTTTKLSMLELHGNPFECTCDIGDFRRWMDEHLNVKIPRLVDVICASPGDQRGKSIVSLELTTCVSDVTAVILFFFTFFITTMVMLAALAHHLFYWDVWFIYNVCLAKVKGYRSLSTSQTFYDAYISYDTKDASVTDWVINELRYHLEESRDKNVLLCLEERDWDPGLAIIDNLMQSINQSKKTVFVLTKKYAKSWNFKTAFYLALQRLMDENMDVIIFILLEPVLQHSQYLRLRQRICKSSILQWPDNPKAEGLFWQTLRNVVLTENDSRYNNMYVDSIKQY
The conditions noted are these: cited from earlier work.

Data set [2] concerns the target T1, TLR7. The settings on record: cited from earlier work.
A short description of data set [3]: In vivo release study (fluorescence IVIS imaging). Also noted: species or system non-tumor-bearing mice. The conditions noted are these: mouse, in vivo. The source says:
To evaluate the in vivo release profiles of Cy7 carboxylic acid (a model compound for R848), anti-PD-1, IL-15sa, and 2′3′-cGAMP, hydrogels containing the fluorophore or one of the fluorescently labeled payloads were surgically implanted into non-tumor-bearing mice.
The loading and release properties of the hydrogel were examined in additional experiments. […] It was then confirmed that the hydrogel extends the release of the small molecules and biologics in vivo. Cy7 carboxylic acid (Cy7-CA) was used as a model small molecule payload, as its physical properties are very similar to those of resiquimod (R848). Cy7-CA was administered to non-tumor-bearing mice, either in solution or loaded in a scaffold placed by the fourth mammary fat pad. The mice were assessed by fluorescence IVIS imaging (FIG. 37B), and the data were quantified (FIG. 37C). Whereas a loss of ˜60% of the signal was detected within two hours of administration of the fluorophore in solution, this amount of signal decay required 24 hours for the fluorophore loaded in the hydrogel. Over this time course, there was a […] for the latter group, on average.
To confirm that the hydrogel sustains the release of the small molecule and biologics in vivo, fluorescently labeled versions of 2 ? […]

In data set [4] the test system is 4T1-Luc2 syngeneic breast cancer cells. The settings on record: for survival with compromised immune system: NK, CD8+ T or CD4+ T cells depleted or IFNAR1 neutralized; for survival benefit as innate immune activator component: hydrogel with IL-15sa and anti-PD-1 (devices 1, 14-16); for efficacy (tumor recurrence, metastasis, survival), in words: scaffold placed in tumor resection site 10 days after inoculation. How it is done: Seven-week-old female Balb/c mice were inoculated orthotopically with 100,000 4T1-Luc2 syngeneic breast cancer cells (into the fourth mammary fat pad). After 10 days, the mice were anesthetized, tumors were surgically resected, and compositions were placed in the resection site. […] The order of surgeries avoided systematic error by dividing up the groups. Standard follow-up care (wound clips, analgesic) was provided.
For the metastatic breast cancer model, 10^5 4T1-Luc2 or 4T1 cells (in 30 μl DPBS) were inoculated orthotopically into the fourth mammary pad of mice to generate a local tumor mass. Cells were injected without any incision to expose the fat pad. Mice were randomly assigned to treatment groups, and surgery was performed 10 days after tumor inoculation. For the metastatic melanoma and lung cancer models, 10^6B16-BL6 or 5×10^5 LLC cells (in 100 μl DPBS) were inoculated subcutaneously in mice to generate a local tumor mass. Mice were randomly assigned to treatment groups, and surgery was performed when tumor volumes reached ˜600 mm^3. While mice were kept under anesthesia at 2% isoflurane, the tumor was resected, and the hydrogel was placed in the site of the resultant cavity at the time of surgery. The wound was closed with medical clips. Control experiments were performed in which therapy was administered in solution at the site of surgery, intraperitoneally, or intravenously. For tumor re-challenge experiments, 10^4 4T1-Luc2 cells were inoculated in the contralateral fourth mammary fat pad. The surgeries were performed independently at least three times, and the surgeon was often blinded.
After surgery, mice were inspected weekly for tumor recurrence and distal metastasis by bioluminescence imaging (BLI). To this end, 10 min after intraperitoneal injection of D-luciferin (150 mg/kg), a substrate of Luc2, the mice were anesthetized with 2% isoflurane and imaged using an IVIS Spectrum In Vivo Imaging System (Perkin Elmer).
A series of compositions described above in Table 2 were evaluated in viva. In each group of evaluations, seven-week-old female Balb/c mice were inoculated orthotopically with 100,000 4T1-Luc2 syngeneic breast cancer cells (into the fourth mammary fat pad). After 10 days, mice were anesthetized, tumors were surgically resected, and the composition was placed in the resection site. Tumor relapse and metastasis were monitored via imaging over the course of 6 weeks.
Female BALB/cJ mice were inoculated orthotopically with 4T1-Luc2 breast cancer cells in their fourth mammary fat pad. Nine days later, the mice were imaged by bioluminescent IVIS imaging to confirm that the size of the tumors was consistent across animals to enable randomization into groups. On day 10 post-tumor inoculation, tumors (˜100 mm^3) were resected, and device 1 was placed in the tumor resection site. Controls included no treatment (sham), empty hydrogel (device 8/hydrogel 4), or delivery of the triple combination in solution (S+I+P)—via intraperitoneal injection, intravenous injection, or local administration.

Data set [5] has as its system 4T1-Luc2 cells. Put plainly: Tumor re-challenge of surviving mice. The settings on record: mice with durable survival after loaded hydrogel. It is filed as in vivo. As to the method:
The wound was closed with medical clips.
To gain insights into the soluble factors that are associated with the activation of innate and adaptive immune cells, the levels of cytokines in peripheral blood were measured. At multiple time points post-surgery, plasma was collected and subsequently analyzed by multiplexing laser bead technology. […] Indeed, the induction of a memory response was confirmed by re-challenging the surviving mice, 100% of which rejected the freshly inoculated 4T1-Luc2 cells (FIG. 94A).

Data set [6] deals with 4T1-Luc2 cells. The data set is described as follows: Non-resected orthotopic 4T1-Luc2 tumors: peritumoral hydrogel or intratumoral injection. In kind it is in vivo, mice. The conditions noted are these: single intratumoral (IT) injection. The source says: In certain embodiments, intraoperative placement of the immunotherapy-loaded hydrogel is required for therapeutic benefit.

For `CCCCNc1nc(N)c2nc(O)n(Cc3ccc(C(=O)NCC(=O)O)cc3)c2n1` [CL264], at TLR7 [1], the “activating concentration, times less than imiquimod” value was 5-10 times and the “concentration inducing NF-κB activation” value is 0.1 µM. Also, the “concentration without stimulation of TLR8” value on TLR8 was more than 10 µg/mL.

As for `CCCCNc1nc(N)c2nc(O)n(Cc3ccc(C(=O)NCC(=O)NCCCNCCCCNCCCN)cc3)c2n1` [CL307, N1-glycinyl[4-((6-amino-2-(butylamino)-8-hydroxy-9H-purin-9-yl)methyl)benzoyl]spermine], the “concentration inducing robust NF-κB activation” value on TLR7 [2] is ≤ 20 nM and ≤ 10 ng/ml.

For the compound `C[N+]1=C(/C=C/C2=CC(=C/C=C3/N(CCCCCC(=O)O)c4ccccc4C3(C)C)CCC2)C(C)(C)c2ccccc21.[Cl-]` [Cy7-CA, Cy7 carboxylic acid], in data set [3], the “increase in signal, hydrogel vs solution” value is on record as “roughly three”.

In the case of `CCOCc1nc2c(N)nc3ccccc3c2n1CC(C)(C)O` [Device R848, resiquimod], in data set [4], the “survival with compromised immune system” value was “exhibited reduced survival”; the “survival benefit as innate immune activator component” value is “conferred meaningful benefit”; the “efficacy (tumor recurrence, metastasis, survival), in words” value is listed as “prevented most effectively”. Also, the “survival benefit by mode of administration” value in data set [4] (hydrogel vs solution (weekly IV, weekly IP, local with empty hydrogel)) was “survival benefit was observed only when R848 was loaded in the hydrogel”. In data set [4] (mouse, in vivo), the “tolerability (body weight)” value was “well tolerated”. Further, the survival benefit result in data set [4] (three consecutive daily IP injections (200 μg)) is on record as “failed to confer robust survival benefit”. The “surviving mice that rejected / survived re-challenge” value with 4T1-Luc2 cells [5] stood at 100%. Also, the survival result in the data set on 4T1-Luc2 cells [6] is listed as “did not prolong survival”.

As to `Cc1cccc(-c2[nH]c(CNc3ccccc3F)nc2-c2ccc3ncnn3c2)n1` [EW7197], the “efficacy of hydrogel with IL-15 superagonist, anti-PD-1 and the small molecule” value in data set [4] (small molecule dissolved in DMSO) is recorded as “provided less efficacious results”.

Take `Nc1ncnc2c1ncn2C1O[C@@H]2CO[P@@](=O)([S-])O[C@H]3[C@@H](O)[C@H](n4cnc5c(N)ncnc54)O[C@@H]3CO[P@@](=O)([S-])O[C@@H]1[C@@H]2O.[Na+].[Na+]` (stereo partly shown) [STING-RR, 2′3′-c-di-AM(PS)2 (Rp,Rp)]: in data set [4], the “survival with compromised immune system” value is “exhibited reduced survival” and the “efficacy (tumor recurrence, metastasis, survival), in words” value is listed as “prevented most effectively”. The “surviving mice that rejected / survived re-challenge” value with 4T1-Luc2 cells [5] is recorded as 100%. For the same compound, in the data set on 4T1-Luc2 cells [6], the survival entry is listed as “did not prolong survival”.

Consider `CCOC(=O)C1=Cc2ccc(-c3cccc(C#N)c3)cc2N=C(N)C1` [TL8-506], for which, at TLR8 (TLR8-transfected HEK293 cells), the “potency in inducing NF-κB activation relative to CL075” value is listed as approximately 25 × and the “potency in inducing NF-κB activation relative to R848” value was approximately 50 ×.

With IL-21: pleiotropic cytokine, the “survival benefit as cytokine component” value in data set [4] (hydrogel with 2′3′-cGAMP and anti-PD-1 (devices 1, 13)) was “had little impact”.

In the case of “polyinosinic:polycytidylic acid [poly(I:C)]”, in data set [4], the “survival benefit as innate immune activator component” value is listed as “had little impact”.

(Values after US10413612B2, “Method of treating cancer with a biomaterial and a toll-like receptor agonist” (Dana-Farber Cancer Institute, Inc., priority 2016, dated 2019).)
